Laboratory results reported in US6947790B2, “Neurocognitive function EEG measurement method and system” (priority 2000, dated 2005).
Like-named read-outs stand apart in the source and are kept apart here.

Assays:
[1] = system: children with ADHD; assay: Experiment 9: spatial WM task performance; assay type: in vivo, human; conditions: medicated vs unmedicated state; Dexedrine 20 mg, methylphenidate 10 mg
Text: Experiment. Participants (a total of N=14, evenly divided between boys and girls) were referred to this study by local ADHD specialists. All participants had been diagnosed with the combined subtype of ADHD and were currently undergoing treatment with stimulant medication. Inclusion criteria include age 8-12 years, no mental retardation or neurological impairment, and full-scale IQ in the normal range as measured by the WISC-III (Wechsler, 1991). Participants were paid $10/hour for their participation, and were reimbursed for transportation costs. To increase motivation, the children were also rewarded with toys for good performance.
(§1) EEG and behavioral data were collected while the children performed low load and high load versions of the spatial WM task described above. […] Participants were tested on each of three occasions at the same time of day with a week between sessions. The first occasion was an orientation and training session in which subjects learned and practiced the tasks until performance reached asymptote. On the other occasions they were tested either while medicated or while abstaining from their normal dose of medication, with order of treatment counterbalanced across subjects. […]

[2] = system: children with ADHD; assay: Experiment 9: EEG and ERP; assay type: in vivo, human
Procedure: as §1, with “subjects. A scientist not otherwise involved with the study maintained the schedule of medication and no-medication days so that the research assistant performing the testing and preliminary analyses was blind to medication status. Data from the orientation day was not included in formal analyses. On the other days subjects first performed a single 23-trial block of each of the task conditions as a warm-up procedure. They then performed 4 more 23-trial blocks of each test version in randomized order.” for “subjects.”
In each session, multi-channel EEG was recorded from multiple “10-10 System” scalp locations (bandpass 0.1-100 Hz, 256 Hz sampling rate, linked mastoid reference) using a custom-made electrode cap. EOG was recorded from above and below the left eye, and from outer canthus of each eye. […]

[3] = system: healthy adults; assay: Experiment 1: subjective sleepiness ratings (Karolinska Sleepiness Scale); assay type: in vivo, human; conditions: 50 mg diphenhydramine, 200-mg caffeine or 0.88 g/kg ethanol, four post-treatment intervals
Procedure: (§2) Each subject participated in […] sessions. The first session was a practice session in which subjects learned to perform the working memory tasks. After training, all subjects participated in 4 sessions, separated by at least one week. […] The four drug sessions were conducted according to a double blind, placebo-controlled, randomized, counterbalanced, crossover design. In each session, subjects consumed two pills (unmarked gelatin capsules) and a mixed drink. […] The pills were given with a 500 cc drink containing either 0.88 g/kg 95% ethanol mixed in fruit juice (adequate to produce an average peak blood alcohol content (BAC) of 0.08), or containing 495 cc of fruit juice with 5 cc of alcohol floated on top to mimic the smell and taste of the treatment drink.
(§3) Each drug session involved a baseline recording before drug administration. This was followed by four post-drug recording intervals, each lasting approximately 40 minutes. The first interval began 0.5 hrs after drug ingestion; the remaining three intervals occurred hourly thereafter. A scientist not otherwise involved in the experiment administered a Breathalyzer test at the beginning of each interval. Subjects also completed the Karolinska and Stanford sleepiness scales at each test period.

[4] = average
Procedure: as §2, §3

[5] = system: healthy adults; assay: Experiment 1: n-back working memory task performance; assay type: in vivo, human; conditions: for Accuracy in working memory task vs placebo / Reaction time in working memory task vs placebo: low load and high load tasks
Text: Subjects performed two difficulty levels of a continuous performance, n-back working memory task, versions of which we have employed in many other EEG studies. In this task, subjects were required to compare the spatial location of the current stimulus with that of one presented previously. Briefly, single capital letter stimuli, drawn randomly from a set of twelve, were presented for 200 msec once every 4.5 sec on a computer monitor. At 1.3 sec prior to stimulus onset, a warning cue (a small “x”) appeared in the center of the screen for 200 msec. The letter stimulus occurred 1.3 sec after the cue in one of twelve possible locations on the monitor. The identity of the letter and its spatial position varied randomly from trial to trial. A small fixation dot was continuously present at the center of the screen. In a low load version of the task, subjects were required to match the position of the current stimulus with the position of the very first stimulus presented in the block. In a high load version of the task, subjects compared the current stimulus with that presented two trials previously. In this version subjects were required to remember two positions (and their sequential order) for the duration of two trials (nine seconds), and to update that information on each subsequent trial. In both versions of the task, stimuli were presented in blocks of 53 trials (the first three trials were warm-up trials and were discarded from analysis). Matches occurred randomly on 50% of the trials. Subjects were instructed to respond as quickly and as accurately as possible.
as §2, §3
(§4) EEG was continuously recorded from 28 scalp electrodes using a digitally linked-mastoids reference. EOG was recorded from electrodes placed above and below one eye, and at the other canthi of each eye. Physiological signals were band-pass filtered at 0.01 to 100 Hz and sampled at 256 Hz. Automated artifact detection was followed by application of adaptive eye contaminant removal filters. The data were then visually inspected and data segments containing possible residual artifacts were eliminated from subsequent analyses. To examine the effects of the pharmacological interventions on individual EEG or behavioral variables, univariate repeated measures analyses of variance (ANOVAs) were used to compare data from each of the three treatment conditions with the placebo condition.

[6] = system: healthy adults; conditions: for Delta band power during resting conditions vs placebo / Theta band power during resting conditions vs placebo: both resting conditions; for Parietal alpha during task performance vs placebo: both task conditions
Procedure: as §3, §4
For neurophysiological features, average power was extracted from individual spectral bands at individual electrode sites, and then compared across test conditions. Decisions as to which parameters to extract from the spectra were based on the results of prior studies. For the task related EEG, past studies indicate that the frontal midline theta rhythm and the parietal alpha rhythm are sensitive to variations in the attentional demands of tasks, and, in particular, to the increase in difficulty in the working memory tasks employed here. For the EEG recorded under passive resting conditions, past studies indicate that activity in the delta and theta bands at posterior sites, and the alpha rhythm measured over the occipital region, are highly sensitive to variations in alertness and arousal. Each of the individual features was compared between placebo and each drug condition in univariate ANOVAs with repeated measures.

[7] = system: healthy adults; assay: Experiment 2: Neurocognitive Function Change (NCFC) index; assay type: in vivo, human; conditions: for NCFC index change from pre-medication baseline: 16 subjects, t1-t4
Text: In this hybrid approach, multiple if-then rules gleaned from expert knowledge are applied to data to produce many low-level decisions about the direction of a change between two states. These local decisions are made with respect to single data parameters and the output of these rule-based functions serve as the inputs to a combinatorial network that in turn produces a single summary index of the direction and magnitude of change of neurocognitive function from a baseline state to a test state. As with a knowledgeable human expert assessing an ambiguous problem, decisions about the direction and severity of a change are based on consideration of a variety of pieces of diagnostic evidence, no one of which is central to the overall decision.
The output from the algorithm is the composite of three sub indices. The Behavioral Performance sub index incorporates measures of psychomotor speed and accuracy during task performance. The Neurophysiological Cognitive sub index incorporates attention-related EEG variables recorded during task performance (e.g. parameters of attention-related ERP components such as P300 and spectral measures of task load-related EEG modulation). The Neurophysiological Alertness sub index incorporates alertness-related physiological variables (e.g. measures of low frequency EEG activity and slow, rolling eye movement activity) recorded during passive resting conditions. The composite Neurocognitive Function Change (NCFC) index provides a summary score indicating direction and degree of change in neurocognitive status from a baseline state. In FIG. 6, each time point reflects change from the pre-medication baseline at t0 . […] In addition to the summary NCFC score presented in FIG. 6, consideration of the output of the sub indices can also provide specific information concerning the manner in which neurocognitive function has changed from baseline. […]

[8] = system: healthy elderly subjects; assay: Experiment 8: resting and task-related EEG and ERP in elderly; assay type: in vivo, human
[9] = system: healthy elderly subjects; assay: Experiment 8: subjective sleepiness in elderly (Karolinska sleepiness scale)
[10] = system: healthy elderly subjects; assay: Experiment 8: WM and ITM task performance in elderly; assay type: in vivo, human

| SMILES | Working memory task performance in an individual subject [1] | Subjective sleepiness relative to placebo [3] | Accuracy in working memory task vs placebo [5] | Reaction time in working memory task vs placebo [5] | Frontal midline theta rhythm during task performance vs placebo [6] | Direction of significant (p < .05) change in spectral power (vs. placebo): Oz alpha ([6]; Resting EEG Eyes Closed) | Direction of significant (p < .05) change in spectral power (vs. placebo): Pz delta ([6]; Resting EEG Eyes Closed) | Direction of significant (p < .05) change in spectral power (vs. placebo): Pz theta ([6]; Resting EEG Eyes Closed) | Direction of significant (p < .05) change in spectral power (vs. placebo): Oz alpha ([6]; Resting EEG Eyes Open) | Direction of significant (p < .05) change in spectral power (vs. placebo): Pz delta ([6]; Resting EEG Eyes Open) | Direction of significant (p < .05) change in spectral power (vs. placebo): Pz theta ([6]; Resting EEG Eyes Open) | Direction of significant (p < .05) change in spectral power (vs. placebo): Pz alpha ([6]; Task EEG High Load) | Direction of significant (p < .05) change in spectral power (vs. placebo): aFz theta ([6]; Task EEG High Load) | Direction of significant (p < .05) change in spectral power (vs. placebo): Pz alpha ([6]; Task EEG Low Load) | Direction of significant (p < .05) change in spectral power (vs. placebo): aFz theta ([6]; Task EEG Low Load) | Delta band power during resting conditions vs placebo [6] | Theta band power during resting conditions vs placebo [6] | Parietal alpha during task performance vs placebo [6] | NCFC index change from pre-medication baseline [7] | further results |
| --- | --- | --- | --- | --- | --- | --- | --- | --- | --- | --- | --- | --- | --- | --- | --- | --- | --- | --- | --- | --- |
| C[C@H](N)Cc1ccccc1 [Dexedrine] | markedly better in the medicated state | – | – | – | – | – | – | – | – | – | – | – | – | – | – | – | – | – | – | Alpha rhythm, high load vs low load, in an individual subject ([2]; Dexedrine 20 mg): larger difficulty-related differences |
| CCO [alcohol, ethanol] | – | significant increase in subjective sleepiness relative to placebo at the 1.5-2 hr, 2.5-3 hr and 3.5-4 hr post-treatment intervals | no significant main effects | slightly faster in the high load task, and slightly slower in the low load task | increased in the amplitude | ▬ | ▴ | ▴ | ▬ | ▴ | ▴ | ▴ | ▴ | ▴ | ▴ | increased the power | increased the power | increased in the amplitude | similar, though less extreme, pattern of impairment | peak BAC ([4]; first post-treatment interval): 0.08; BAC ([4]; last post-treatment interval): 0.03; NCFC sub index most affected ([7]; in vivo): relative greater effect on the Neurophysiological Attention sub index |
| Cn1c(=O)c2c(ncn2C)n(C)c1=O [caffeine] | – | did not produce subjective sleepiness ratings significantly different from placebo | No significant behavioral differences | No significant behavioral differences | – | ▬ | ▬ | ▬ | ▬ | ▬ | ▬ | ▾ | ▬ | ▾ | ▬ | – | – | significant reduction in alpha band power at parietal sites | little change from baseline | Resting EEG data relative to placebo [6]: did not produce significant differences in resting EEG data relative to placebo |
| CN(C)CCOC(c1ccccc1)c1ccccc1 [diphenhydramine] | – | – | less accurately | significantly more slowly | reduction in power for the frontal midline theta rhythm in the high load task only | – | – | – | – | – | – | – | – | – | – | increase in power in the delta | trend towards increasing | – | – | Amplitude of posterior P200 in ITM task [8]: larger after diphenhydramine ingestion than after placebo ingestion; N160 and P350 ERP in WM task ([8]; low and high load tasks): significantly smaller following diphenhydramine ingestion than placebo; Resting EEG delta and theta power ([8]; posterior regions): increase in power in the delta and theta bands over posterior regions; Time of nadir of task performance ([5]; post drug, third post-ingestion interval): 2.5 to 3 h; Time of greatest subjective sleepiness ([9]; after ingestion): 2.5 h; Subjective sleepiness vs placebo ([9]; elderly, 50 mg): significantly sleepier; ITM task RT and word recognition accuracy [10]: did not show significant effects of diphenhydramine; WM task performance [10]: did not significantly affect task performance; Alpha band power, eyes-closed resting condition vs placebo [6]: attenuation of power in the alpha band in the eyes-closed resting condition; Alpha band power, eyes-open resting condition vs placebo [6]: no significant change in power during the eyes-open resting condition; Slow eye movement activity during resting conditions ([6]; discussion): increase in the incidence of slow eye movement activity |
| COC(=O)C(c1ccccc1)C1CCCCN1 (stereo not drawn) [methylphenidate] | markedly better in the medicated state | – | – | – | – | – | – | – | – | – | – | – | – | – | – | – | – | – | – | P300 amplitude in an individual subject ([2]; methylphenidate 10 mg): larger in the medicated condition |
